# Assay results published in patent US20250206779A1, “ANGIOTENSIN-(1-9) ANALOGUE BASED ON D AMINO ACIDS, PHARMACEUTICAL COMPOSITIONS AND USES THEREOF” (UNIVERSIDAD DE CHILE, priority 2021, published 2025).
# Where a SMILES comes first, the peptide text is derived from it. [ ]: non-standard residue; d: D form.
# How the values were obtained:
# [1] = tested on: spontaneously hypertensive rats (SHR); assay: Cardiac inflammation by monocyte infiltration in SHR, ED-1 immunohistochemistry; assay type: in vivo, rat; conditions: SHR, 1,200 ng/kg/min, 14 days
# Procedure: Experimental animal model. All procedures were performed in accordance with the Guide for the Care and Use of Laboratory Animals published by the U.S. National Institutes of Health (NIH Publication 85 23, 1985) and approved by our Institutional Bioethics Committee. The animals were housed under the continuous professional monitoring of the Medical Veterinary staff in the animal facility of the Pontificia Universidad Católica de Chile, under the following conditions: 12-h light-dark cycle; 21° C. ambient temperature; 50% humidity; adequate ventilation; noise-free environment; and food and water ad libitum. Male spontaneously hypertensive rats (SHR, age 12 weeks) and normotensive Wistar Kyoto rats (WKY, 12 weeks age) were used. […] Systolic blood pressure (SBP), diastolic blood pressure (DBP) and body weight (BW) were measured at the end of the treatment period and the animals were then sacrificed.
# Evaluation of cardiac inflammation by monocyte infiltration. Monocyte infiltration was assessed as a marker of cardiac inflammation. Monocytes were detected by immunohistochemistry using ED-1. […] In hypertense SHR increased ED-1 positive cells was detected in the hearts, indicating the presence of monocyte infiltration, a marker of cardiac inflammation.
# [2] = tested on: cardiac myocytes isolated from neonatal Sprague-Dawley rat ventricles; assay: Norepinephrine-induced cardiomyocyte hypertrophy, western blot of β-MHC and ANP; assay type: cell-based; conditions: 1, 10 or 100 μM peptide, 10 μM norepinephrine
# Procedure: Cardiac myocytes were isolated from neonatal Sprague-Dawley rat ventricles. Cardiac myocytes were plated at 70% final density in gelatin-coated wells (12-well plates) or in 60-mm Petri dishes and maintained at 37° C. in a humidified atmosphere of 5% CO2/95% air for 24 h in Dulbecco's Modified Eagle's medium [(DMEM)/M199](4:1) containing 10% fetal bovine serum and 5% fetal calf serum. Serum was withdrawn 24 h before preincubation with 1, 10 or 100 μM retro-inverse angiotensin-(1-9) for 1 h; then, 10 μM norepinephrine (Sigma, St Louis, Missouri, USA) were added and the cultures were incubated for 24 h. Then cells were washed with PBS at 4° C. and then cells were lysed with 50 μL of RIPA lysis buffer (Tris-HCl 10 mM pH 7.4, EDTA 5 mM, NaCl 50 mM, deoxycholic acid 1%, Triton X-100 1% v/v) supplemented with phosphatase and protease inhibitors (Roche). After centrifugation at 12,000 r.p.m. for 15 min at 4° C., the supernatat was recovered; total protein content was determined by using Bradford (BioRad protein assay, BioRad, Hercules, CA, USA). Proteins were denatured in SDS-PAGE 4× buffer and resolved in 12% PAGE-SDS. After electrotransference, beta-myosin heavy chain (β-MHC) and atrial natriuretic peptide (ANP) were used as hypertrophic markers. β-tubulin was used as loading control. As expected, norepinephrine 10 μM for […], a cardiomyocyte hypertrophy inducer, triggered β-MHC and ANP increase (FIG. 3).
# [3] = tested on: isolated hearts from adult male Sprague-Dawley rats; assay: Infarct size in isolated hearts subjected to ischemia/reperfusion (Langendorff, TTC staining); design: species or system rat; conditions: 50 nM peptide in reperfusion, 30 min global ischemia, ex vivo
# Procedure: The cardioprotective effects of retro-inverse angiotensin-(1-9) were also investigated in isolated hearts from adult male Sprague-Dawley rats (250-300 g) subjected to ischemia/reperfusion (I/R) using a Langendorff procedure. Rats were anesthetized with pentobarbital [80 mg/kg intraperitoneally (i.p.)] and heparin 100 U/kg was injected into the right atria. Hearts were rapidly harvested and perfused through the aorta with Krebs-Henseleit solution containing NaCl 128.3 mM, KCl 4.7 mM, CaCl2 1.35 mM, MgSO4 1.1 mM, NaHCO3 20.2 mM, NaH2PO4 0.4 mM and glucose 11.1 mM, pH 7.4 (equilibrated with a gas mixture of 95% O2 and 5% CO2 at 37° C.), using a peristaltic pump (Gilson Miniplus 3, France). A latex balloon connected to a pressure transducer was placed through the left atrium and mitral valve into the left ventricle. The balloon was filled with saline to determine isovolumetric intraventricular pressure. Perfusion flow was 10-14 mL/min. Hearts were placed in a heated chamber and paced at 240-300 beats/min with platinum electrodes, using a Grass stimulator (pulses of 5V, 1 ms). […] The infarct size was determined using 2,3,5-triphenyltetrazolium chloride (TTC) staining. […]
smiles,measurement,setting,value
"CC[C@@H](C)[C@@H](NC(=O)[C@@H](Cc1c[nH]cn1)NC(=O)[C@H]1CCCN1C(=O)[C@@H](Cc1ccccc1)NC(=O)[C@H](N)Cc1c[nH]cn1)C(=O)N[C@H](Cc1ccc(O)cc1)C(=O)N[C@@H](C(=O)N[C@H](CCCNC(=N)N)C(=O)N[C@H](CC(=O)O)C(=O)O)C(C)C [retro-inverse angiotensin-(1-9), NH2-^DH^DF^DP^DH^DI^DY^DV^DR^DD-COOH] (H-[dH][dF][dP][dH][dI][dY][dV][dR][dD]-OH)",accumulation of ED-1 positive cells in cardiac tissue,[1],completely revert
same,increase of ANP induced by norepinephrine,[2],"inhibited, in a dose response manner"
same,increase of β-MHC induced by norepinephrine,[2],"inhibited, in a dose response manner"
same,decrease of infarct size,[3],around 70%
